Laboratory results published in the NIST ThermoML archive (doi:10.1016/j.jct.2017.12.017).
Several values for one entry are separate records, joined by “and”; a condition that tells them apart may be missing. Identical values can stand only once.

Assay: mn = molality of the nth substance listed, in mol/kg
Details: 100 kPa, Liquid; for speed of sound: Frequency=3 MHz, Single path-length method; for mass density: Vibrating tube method

Nc1ccc(S(=O)(=O)Nc2nccs2)cc1 [N-(2-thiazolyl)sulfanilamide] + O
Details | mass density, 288.15 K | mass density, 293.15 K | mass density, 298.15 K | mass density, 303.15 K | mass density, 308.15 K | speed of sound, 288.15 K [m/s] | speed of sound, 293.15 K [m/s] | speed of sound, 298.15 K [m/s] | speed of sound, 303.15 K [m/s] | speed of sound, 308.15 K [m/s]
m1 = 0.001 | 999.21 kg/m3 | 998.28 kg/m3 | 997.13 kg/m3 | 995.71 kg/m3 | 994.08 kg/m3 | 1466.6 | 1482.9 | 1497.1 | 1509.6 | 1520.2
m1 = 0.005 | 999.71 kg/m3 | 998.79 kg/m3 | 997.61 kg/m3 | 996.18 kg/m3 | 994.54 kg/m3 | 1467.2 | 1483.5 | 1497.7 | 1510 | 1520.6
m1 = 0.01 | 1000.27 kg/m3 and 1000.33 kg/m3 | 999.36 kg/m3 and 999.41 kg/m3 | 998.19 kg/m3 and 998.23 kg/m3 | 996.81 kg/m3 and 996.77 kg/m3 | 995.18 kg/m3 and 995.14 kg/m3 | 1468.5 | 1484.5 | 1498.7 | 1510.7 | 1521.7
